pIC50: −log10 of the molar value. Converted amounts (≈) assume the structure as drawn.
Assays:
[1] = tested on: Botrtyis cinerea (Bc); assay: Growth inhibition assay of fungal pathogens, Bc; format: cell-based; settings: 48 h, Botrtyis cinerea; growth inhibition at 48 hours vs 2% DMSO control; read-out: Concentration at 90% Inhibition Bc
Outline: (§1)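 Spores from sub-cultured plates were diluted in 17% V8 liquid medium and exposed to compound from DMSO stocks at final concentrations of 50, 10 and 2 ppm or 2, 0.4 and 0.08 ppm. OD600 and visual ratings at 48 h were compared with the 2% DMSO control to give percent growth inhibition.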

[2] = tested on: Fusarium virguliforme (Fv); assay: Growth inhibition assay of fungal pathogens, Fv; format: cell-based; settings: 48 h, growth inhibition at 48 hours vs 2% DMSO control, read-out: Concentration at 90% Inhibition Fv
Outline: as §1

[3] = tested on: C. parapsilosis; assay: Antifungal Activity Assay (broth microtiter MIC), C. parapsilosis; format: cell-based, Candida parapsilosis; settings: Lodderomyces parapsilosis, ATCC22019, 48 h, Table 3b (additional results); ATCC 22019; 3 replicates; MIC recorded at 48 h; read-out: MIC, C. parapsilosis ATCC 22019
Outline: (§2)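 Endpoint: lowest concentration visibly inhibiting growth relative to control after 48 h. Inoculum of 2.5×10^3 CFU/mL final in RPMI 1640+MOPS, prepared from overnight 35° C agar cultures; test compounds diluted in water to 128 μg/mL before plating.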

[4] = biological target: fungal (fACC2) (UniProt Q00955); settings: read-out: fACC2 (in vitro ACC2 Inhibition Assay, IC50); Table 2b, additional results; ADP-Glo, 5 nM ACC2, 20 μM ATP, 20 μM acetyl-CoA
[5] = tested on: Diplodia maydis (Dm); assay: Growth inhibition assay of fungal pathogens, Dm; format: cell-based; settings: Stenocarpella maydis, 48 h, Diplodia maydis; growth inhibition at 48 hours vs 2% DMSO control; read-out: Concentration at 90% Inhibition Dm
Outline: as §1

[6] = tested on: C. krusei; assay: Antifungal Activity Assay (broth microtiter MIC), C. krusei; format: cell-based, Candida krusei; settings: Pichia kudriavzevii, ATCC6258, 48 h, Table 3b (additional results); ATCC 6258; 3 replicates; MIC recorded at 48 h; read-out: MIC, C. krusei ATCC 6258
Outline: as §2

[7] = tested on: Fusarium moniliforme (Fm); assay: Growth inhibition assay of fungal pathogens, Fm; format: cell-based; settings: Fusarium verticillioides, 48 h, Fusarium moniliforme; growth inhibition at 48 hours vs 2% DMSO control; read-out: Concentration at 90% Inhibition Fm
Outline: as §1

[8] = tested on: Rhizoctonia solani (Rs); assay: Growth inhibition assay of fungal pathogens, Rs; format: cell-based; settings: 48 h, mycelial plugs, growth inhibition at 48 hours vs 2% DMSO control, read-out: Concentration at 90% Inhibition Rs
[9] = biological target: human (hACC2) (Homo sapiens, UniProt O00763); assay: In vitro ACC inhibition assay (ADP-Glo), hACC2; format: biochemical; settings: Table 2b, additional results, 5 nM ACC2, 20 μM ATP, 20 μM acetyl-CoA
Protocol: The detailed procedure is as follows. […] 10 μL ADP glo reagent was added. […] 20 μL kinase detection reagent was added.

[10] = tested on: Phytophthora capsici (Pc); assay: Growth inhibition assay of fungal pathogens, Pc; format: cell-based; settings: 48 h, growth inhibition at 48 hours vs 2% DMSO control, read-out: Concentration at 90% Inhibition Pc
Outline: as §1

[11] = tested on: C. albicans; assay: Antifungal Activity Assay (broth microtiter MIC), C. albicans; format: cell-based, Candida albicans; settings: Candida albicans, ATCC90028, 48 h, Table 3b (additional results); ATCC 90028; 3 replicates; MIC recorded at 48 h; read-out: MIC, C. albicans ATCC 90028
Outline: as §2

[12] = tested on: Collectotrichum graminicola (Cg); assay: Growth inhibition assay of fungal pathogens, Cg; format: cell-based; settings: 48 h, Collectotrichum graminicola; growth inhibition at 48 hours vs 2% DMSO control; read-out: Concentration at 90% Inhibition Cg
Outline: as §1

[13] = tested on: Septoria tritici (St); assay: Growth inhibition assay of fungal pathogens, St; format: cell-based; settings: Zymoseptoria tritici, 48 h, Septoria tritici; growth inhibition at 48 hours vs 2% DMSO control; read-out: Concentration at 90% Inhibition St
Outline: as §1

Sequence of fungal (fACC2) (Q00955 whole entry): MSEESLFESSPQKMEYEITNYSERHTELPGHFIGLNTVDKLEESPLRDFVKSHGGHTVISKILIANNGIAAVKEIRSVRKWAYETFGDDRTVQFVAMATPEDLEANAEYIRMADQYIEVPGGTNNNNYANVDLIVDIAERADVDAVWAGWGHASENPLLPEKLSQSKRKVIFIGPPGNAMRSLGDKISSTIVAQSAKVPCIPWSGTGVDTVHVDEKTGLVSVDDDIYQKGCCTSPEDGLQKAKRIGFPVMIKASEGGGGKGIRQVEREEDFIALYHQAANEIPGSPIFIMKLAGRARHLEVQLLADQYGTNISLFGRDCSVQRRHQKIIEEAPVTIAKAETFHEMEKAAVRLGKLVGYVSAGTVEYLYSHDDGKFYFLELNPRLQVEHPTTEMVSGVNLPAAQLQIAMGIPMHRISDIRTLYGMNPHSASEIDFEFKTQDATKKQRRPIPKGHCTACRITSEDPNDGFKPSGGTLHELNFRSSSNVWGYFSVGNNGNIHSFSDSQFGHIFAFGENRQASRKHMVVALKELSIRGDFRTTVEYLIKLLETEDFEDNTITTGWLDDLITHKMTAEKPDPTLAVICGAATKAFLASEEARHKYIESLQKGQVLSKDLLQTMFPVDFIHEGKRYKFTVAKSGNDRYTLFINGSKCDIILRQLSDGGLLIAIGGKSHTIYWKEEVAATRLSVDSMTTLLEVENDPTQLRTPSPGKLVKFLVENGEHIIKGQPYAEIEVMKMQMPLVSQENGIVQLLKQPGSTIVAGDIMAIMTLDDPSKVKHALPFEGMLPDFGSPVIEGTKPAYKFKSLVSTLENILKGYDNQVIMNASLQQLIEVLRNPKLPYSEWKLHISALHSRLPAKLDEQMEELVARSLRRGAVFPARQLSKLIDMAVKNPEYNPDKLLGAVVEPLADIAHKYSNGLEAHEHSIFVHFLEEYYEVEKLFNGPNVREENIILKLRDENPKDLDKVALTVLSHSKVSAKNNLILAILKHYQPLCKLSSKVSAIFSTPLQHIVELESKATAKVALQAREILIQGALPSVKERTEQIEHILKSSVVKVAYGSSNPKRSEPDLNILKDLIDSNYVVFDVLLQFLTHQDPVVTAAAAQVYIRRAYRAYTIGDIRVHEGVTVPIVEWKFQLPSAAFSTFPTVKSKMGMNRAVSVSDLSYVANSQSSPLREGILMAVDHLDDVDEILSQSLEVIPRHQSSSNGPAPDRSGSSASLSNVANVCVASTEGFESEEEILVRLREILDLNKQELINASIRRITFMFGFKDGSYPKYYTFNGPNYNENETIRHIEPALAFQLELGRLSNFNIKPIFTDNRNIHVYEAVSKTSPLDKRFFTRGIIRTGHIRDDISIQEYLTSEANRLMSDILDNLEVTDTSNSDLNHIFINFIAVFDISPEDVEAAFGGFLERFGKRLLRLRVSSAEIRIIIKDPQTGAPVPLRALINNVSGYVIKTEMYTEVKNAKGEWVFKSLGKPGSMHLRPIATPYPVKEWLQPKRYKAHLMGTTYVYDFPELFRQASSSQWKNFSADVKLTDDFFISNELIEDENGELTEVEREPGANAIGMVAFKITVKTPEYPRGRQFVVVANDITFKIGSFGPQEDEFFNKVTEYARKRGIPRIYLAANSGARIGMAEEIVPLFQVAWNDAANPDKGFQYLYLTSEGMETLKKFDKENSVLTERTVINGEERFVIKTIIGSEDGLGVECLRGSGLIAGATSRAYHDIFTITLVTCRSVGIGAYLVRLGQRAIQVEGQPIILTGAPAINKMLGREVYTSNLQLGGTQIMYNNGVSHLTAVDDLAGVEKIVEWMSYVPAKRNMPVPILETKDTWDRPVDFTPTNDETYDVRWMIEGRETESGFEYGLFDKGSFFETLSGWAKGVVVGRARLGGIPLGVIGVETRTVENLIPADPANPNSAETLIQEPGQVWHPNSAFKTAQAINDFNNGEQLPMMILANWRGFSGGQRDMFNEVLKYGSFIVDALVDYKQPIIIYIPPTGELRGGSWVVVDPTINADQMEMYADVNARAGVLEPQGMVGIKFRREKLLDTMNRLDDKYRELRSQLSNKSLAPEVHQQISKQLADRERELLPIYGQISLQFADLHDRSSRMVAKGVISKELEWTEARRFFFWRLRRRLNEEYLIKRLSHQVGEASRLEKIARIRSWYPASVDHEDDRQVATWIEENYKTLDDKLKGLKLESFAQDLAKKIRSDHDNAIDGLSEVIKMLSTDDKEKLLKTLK
Sequence of human (hACC2) (O00763 whole entry): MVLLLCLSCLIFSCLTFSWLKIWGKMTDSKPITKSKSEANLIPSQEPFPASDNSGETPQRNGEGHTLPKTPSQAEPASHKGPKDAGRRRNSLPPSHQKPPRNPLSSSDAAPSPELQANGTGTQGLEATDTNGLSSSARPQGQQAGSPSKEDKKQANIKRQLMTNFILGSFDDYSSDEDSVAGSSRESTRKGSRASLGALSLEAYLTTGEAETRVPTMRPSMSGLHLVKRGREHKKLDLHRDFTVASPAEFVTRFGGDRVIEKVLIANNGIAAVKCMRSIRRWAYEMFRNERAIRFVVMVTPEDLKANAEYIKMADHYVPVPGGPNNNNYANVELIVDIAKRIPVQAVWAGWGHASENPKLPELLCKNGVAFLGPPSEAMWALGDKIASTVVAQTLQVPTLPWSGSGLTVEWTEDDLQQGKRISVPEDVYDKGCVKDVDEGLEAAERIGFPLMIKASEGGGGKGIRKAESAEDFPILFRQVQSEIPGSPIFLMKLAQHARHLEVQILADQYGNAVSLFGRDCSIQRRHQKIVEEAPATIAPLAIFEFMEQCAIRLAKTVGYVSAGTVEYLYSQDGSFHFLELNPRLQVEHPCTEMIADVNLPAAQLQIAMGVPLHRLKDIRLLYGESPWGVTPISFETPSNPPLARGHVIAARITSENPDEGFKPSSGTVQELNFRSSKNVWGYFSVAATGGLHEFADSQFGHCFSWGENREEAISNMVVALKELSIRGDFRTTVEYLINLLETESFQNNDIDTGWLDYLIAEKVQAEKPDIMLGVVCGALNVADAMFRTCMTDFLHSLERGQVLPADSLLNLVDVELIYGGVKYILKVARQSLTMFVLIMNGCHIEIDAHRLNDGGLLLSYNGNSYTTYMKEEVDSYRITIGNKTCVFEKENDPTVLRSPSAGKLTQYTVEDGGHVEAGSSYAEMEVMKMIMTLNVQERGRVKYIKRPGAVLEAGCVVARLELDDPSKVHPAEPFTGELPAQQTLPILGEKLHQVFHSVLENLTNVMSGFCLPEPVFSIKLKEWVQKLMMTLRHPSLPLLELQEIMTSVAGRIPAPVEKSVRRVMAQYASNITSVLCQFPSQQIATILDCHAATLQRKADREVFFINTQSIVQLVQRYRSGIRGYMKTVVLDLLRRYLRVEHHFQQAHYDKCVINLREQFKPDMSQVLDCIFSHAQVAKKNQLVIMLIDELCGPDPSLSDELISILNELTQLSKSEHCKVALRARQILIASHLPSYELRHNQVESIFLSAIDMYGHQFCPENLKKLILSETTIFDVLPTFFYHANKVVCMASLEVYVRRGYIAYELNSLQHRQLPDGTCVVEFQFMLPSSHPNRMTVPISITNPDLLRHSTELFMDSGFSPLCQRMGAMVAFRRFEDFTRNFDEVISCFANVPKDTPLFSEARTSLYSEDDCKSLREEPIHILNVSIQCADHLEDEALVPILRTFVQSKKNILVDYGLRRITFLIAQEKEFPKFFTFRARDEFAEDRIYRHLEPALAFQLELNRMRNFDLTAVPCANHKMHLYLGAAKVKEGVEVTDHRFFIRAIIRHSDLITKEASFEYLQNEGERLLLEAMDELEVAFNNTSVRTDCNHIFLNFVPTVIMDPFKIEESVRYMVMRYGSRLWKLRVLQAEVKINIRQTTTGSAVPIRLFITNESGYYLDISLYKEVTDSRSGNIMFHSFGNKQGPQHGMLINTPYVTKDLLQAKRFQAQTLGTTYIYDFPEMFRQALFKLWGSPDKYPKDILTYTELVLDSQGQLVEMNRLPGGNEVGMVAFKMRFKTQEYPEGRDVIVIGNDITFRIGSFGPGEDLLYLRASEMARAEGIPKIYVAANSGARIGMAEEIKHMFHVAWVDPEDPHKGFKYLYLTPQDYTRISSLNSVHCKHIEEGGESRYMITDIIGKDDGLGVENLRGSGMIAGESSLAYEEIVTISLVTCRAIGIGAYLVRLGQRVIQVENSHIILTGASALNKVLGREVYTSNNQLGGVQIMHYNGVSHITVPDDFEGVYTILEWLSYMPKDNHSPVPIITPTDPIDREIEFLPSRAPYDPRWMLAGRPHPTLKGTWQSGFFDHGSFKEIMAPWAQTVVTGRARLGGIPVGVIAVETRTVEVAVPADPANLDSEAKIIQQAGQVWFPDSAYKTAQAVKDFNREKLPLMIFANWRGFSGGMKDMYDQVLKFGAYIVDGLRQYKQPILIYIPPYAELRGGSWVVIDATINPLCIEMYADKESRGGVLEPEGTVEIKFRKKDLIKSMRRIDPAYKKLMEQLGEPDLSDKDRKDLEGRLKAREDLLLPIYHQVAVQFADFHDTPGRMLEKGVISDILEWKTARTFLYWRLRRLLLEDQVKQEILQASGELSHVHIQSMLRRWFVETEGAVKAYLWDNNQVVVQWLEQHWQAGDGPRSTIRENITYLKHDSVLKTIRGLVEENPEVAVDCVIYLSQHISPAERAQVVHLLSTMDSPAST

Q: `COc1ccc(F)cc1[C@@H](O)Cn1c(=O)n([C@H](C)C(=O)N2CCCC2)c(=O)c2c(C)c(-n3nccn3)sc21` [Compound I-195] was tested. Which IC90 [1] did it give?
A: The IC90 was 2 µg/mL (≈ 3.69 µM).

Q: And the IC90 [2]?
A: The IC90 was 0.4 µg/mL (≈ 0.737 µM).

Q: And the MIC [3]?
A: Its MIC is 1.01 to 2 µg/mL (≈ 1.86 to 3.69 µM).

Q: And the pIC50 [4]?
A: The pIC50 was 9.00 to 9.52.

Q: What about the IC90 [5] of the same compound?
A: The IC90 was 10 µg/mL (≈ 18.4 µM).

Q: And the MIC [6]?
A: The MIC was 1.01 to 2 µg/mL (≈ 1.86 to 3.69 µM).

Q: And the IC90 [7]?
A: The IC90 was 0.4 µg/mL (≈ 0.737 µM).

Q: And the IC90 [8]?
A: Its IC90 is 0.4 µg/mL (≈ 0.737 µM).

Q: And the pIC50 [9]?
A: The pIC50 was 8.00 to 8.30.

Q: And the IC90 [10]?
A: Its IC90 is over 50 µg/mL.

Q: What about the MIC [11] of the same compound?
A: The MIC was 1.01 to 2 µg/mL (≈ 1.86 to 3.69 µM).

Q: And the IC90 [12]?
A: The IC90 was 2 µg/mL (≈ 3.69 µM).

Q: And the IC90 [13]?
A: Its IC90 is over 50 µg/mL.

Q: How did the IC90 [1] turn out when `COc1ccccc1[C@@H](O)Cn1c(=O)n(C(C)(C)C(N)=O)c(=O)c2c(C)c(-n3nccn3)sc21` [Compound I-196] was run?
A: Its IC90 is over 50 µg/mL.

Q: And the IC90 [2]?
A: Its IC90 is over 50 µg/mL.

Q: What about the MIC [3] of the same compound?
A: Its MIC is over 4.01 µg/mL.

Q: What about the pIC50 [4] of the same compound?
A: Its pIC50 is 8.30 to 9.00.

Q: And the IC90 [5]?
A: The IC90 was over 50 µg/mL.

Q: What about the MIC [6] of the same compound?
A: The MIC was 2.01 to 4 µg/mL (≈ 4.15 to 8.26 µM).

Q: What about the IC90 [7] of the same compound?
A: The IC90 was over 50 µg/mL.

Q: And the IC90 [8]?
A: The IC90 was 2 µg/mL (≈ 4.13 µM).

Q: What about the pIC50 [9] of the same compound?
A: Its pIC50 is 7.40 to 8.00.

Q: And the IC90 [10]?
A: The IC90 was over 50 µg/mL.

Q: What about the MIC [11] of the same compound?
A: Its MIC is over 4.01 µg/mL.

Q: And the IC90 [12]?
A: The IC90 was over 50 µg/mL.

Q: And the IC90 [13]?
A: The IC90 was over 50 µg/mL.

Q: `COc1ccc(F)cc1[C@@H](O)Cn1c(=O)n([C@H](C)C(=O)N(C)C(C)C)c(=O)c2c(C)c(-n3nccn3)sc21` [Compound I-197] was tested. Which IC90 [1] did it give?
A: The IC90 was 0.4 µg/mL (≈ 0.734 µM).

Q: And the IC90 [2]?
A: Its IC90 is 0.4 µg/mL (≈ 0.734 µM).

Q: And the MIC [3]?
A: Its MIC is 2.01 to 4 µg/mL (≈ 3.69 to 7.34 µM).

Q: What about the pIC50 [4] of the same compound?
A: Its pIC50 is 9.00 to 9.52.

Q: And the IC90 [5]?
A: Its IC90 is 2 µg/mL (≈ 3.67 µM).

Q: What about the MIC [6] of the same compound?
A: The MIC was 2.01 to 4 µg/mL (≈ 3.69 to 7.34 µM).

Q: What about the IC90 [7] of the same compound?
A: Its IC90 is 0.08 µg/mL (≈ 0.147 µM).

Q: What about the IC90 [8] of the same compound?
A: The IC90 was 0.4 µg/mL (≈ 0.734 µM).

Q: What about the pIC50 [9] of the same compound?
A: The pIC50 was 8.00 to 8.30.

Q: And the IC90 [10]?
A: Its IC90 is over 50 µg/mL.

Q: What about the MIC [11] of the same compound?
A: The MIC was 2.01 to 4 µg/mL (≈ 3.69 to 7.34 µM).

Q: What about the IC90 [12] of the same compound?
A: The IC90 was 2 µg/mL (≈ 3.67 µM).

Q: And the IC90 [13]?
A: The IC90 was over 50 µg/mL.

Q: What does the source list for `COc1ccc(F)cc1[C@@H](O)Cn1c(=O)n([C@@H](C)C(=O)N(C)C(C)C)c(=O)c2c(C)c(-n3nccn3)sc21` [Compound I-198]?
A: IC90 [1]: 0.4 µg/mL (≈ 0.734 µM); IC90 [2]: 0.4 µg/mL (≈ 0.734 µM); MIC [3]: 2.01 to 4 µg/mL (≈ 3.69 to 7.34 µM); pIC50 [4]: 8.30 to 9.00; IC90 [5]: 0.4 µg/mL (≈ 0.734 µM); MIC [6]: 2.01 to 4 µg/mL (≈ 3.69 to 7.34 µM); IC90 [7]: 0.08 µg/mL (≈ 0.147 µM); IC90 [8]: 0.08 µg/mL (≈ 0.147 µM); pIC50 [9]: 8.30 to 9.00; IC90 [10]: 10 µg/mL (≈ 18.4 µM); MIC [11]: 2.01 to 4 µg/mL (≈ 3.69 to 7.34 µM); IC90 [12]: 0.4 µg/mL (≈ 0.734 µM); IC90 [13]: > 50 µg/mL

Q: Which IC90 [1] does the source give for `COc1ccccc1[C@H](Cn1c(=O)n([C@H](C)C(=O)N(C)C(C)C)c(=O)c2c(C)c(-n3nccn3)sc21)OCCC#N` [Compound I-205] here?
A: The IC90 was 2 µg/mL (≈ 3.45 µM).

Q: And the IC90 [2]?
A: The IC90 was 10 µg/mL (≈ 17.3 µM).

Q: And the MIC [3]?
A: The MIC was 1.01 to 2 µg/mL (≈ 1.74 to 3.45 µM).

Q: What about the pIC50 [4] of the same compound?
A: Its pIC50 is 9.00 to 9.52.

Q: And the IC90 [5]?
A: Its IC90 is 10 µg/mL (≈ 17.3 µM).

Q: And the MIC [6]?
A: Its MIC is 2.01 to 4 µg/mL (≈ 3.47 to 6.9 µM).

Q: And the IC90 [7]?
A: The IC90 was 2 µg/mL (≈ 3.45 µM).

Q: And the IC90 [8]?
A: Its IC90 is 10 µg/mL (≈ 17.3 µM).

Q: And the pIC50 [9]?
A: Its pIC50 is 8.00 to 8.30.

Q: And the IC90 [10]?
A: The IC90 was over 50 µg/mL.

Q: And the MIC [11]?
A: The MIC was 2.01 to 4 µg/mL (≈ 3.47 to 6.9 µM).

Q: What about the IC90 [12] of the same compound?
A: The IC90 was 10 µg/mL (≈ 17.3 µM).

Q: What about the IC90 [13] of the same compound?
A: The IC90 was over 50 µg/mL.

Q: What does the source list for `COc1ccccc1[C@H](Cn1c(=O)n([C@@H](C)C(=O)N(C)C(C)C)c(=O)c2c(C)c(-n3nccn3)sc21)OCCC#N` [Compound I-206]?
A: IC90 [1]: 2 µg/mL (≈ 3.45 µM); IC90 [2]: 0.08 µg/mL (≈ 0.138 µM); MIC [3]: 1.01 to 2 µg/mL (≈ 1.74 to 3.45 µM); pIC50 [4]: 9.00 to 9.52; IC90 [5]: 2 µg/mL (≈ 3.45 µM); MIC [6]: 2.01 to 4 µg/mL (≈ 3.47 to 6.9 µM); IC90 [7]: 0.08 µg/mL (≈ 0.138 µM); IC90 [8]: 0.08 µg/mL (≈ 0.138 µM); pIC50 [9]: 8.30 to 9.00; IC90 [10]: 10 µg/mL (≈ 17.3 µM); MIC [11]: 2.01 to 4 µg/mL (≈ 3.47 to 6.9 µM); IC90 [12]: 2 µg/mL (≈ 3.45 µM); IC90 [13]: 10 µg/mL (≈ 17.3 µM)

Source: patent US10800791B2, “Triazole ACC inhibitors and uses thereof” (Gilead Apollo, LLC, priority 2015, dated 2020)
